This experiment deals with skin wrinkles. The experiment is described as follows: Clinical trial of wrinkle reduction, wrinkle volume measured with PRIMOS CR. It counts as in vivo, human. The following applies: lotion with 0.0003 wt % NaV-B, 0.1 g at corners of eyes, female volunteers. Here is the method:
The capacity of NaV-B in reducing skin wrinkles was evaluated by clinical trials, wherein a total of 30 female volunteers ranging from 35 to 55 years old were participating in the trials. In the trials, 0.1 g of lotion was evenly applied to the corners of the volunteers' eyes. The wrinkle volume of each volunteer was measured with a wrinkle analyzer PRIMOS CR at various moments: before application, 15 minutes after application, 1 hour after application, 2 hours after application, and 4 hours after application.
The lotion was prepared by adding NaV-B, glycerin, 1,3-butanediol, sodium hyaluronate, and methylparaben into deionized water according to the following proportions, and stirring until all the ingredients were dissolved.
Results: The reduced wrinkle volumes of each volunteer were obtained by subtracting the volume measured before application from the volumes measured 15 minutes after application, 1 hour after application, 2 hours after application, and 4 hours after application. The percentages of reduced wrinkle volume of each volunteer were obtained through dividing the reduced wrinkle volumes by the volume measured before application.

The results in this text go back to patent US11548918B2, “Sodium channel protein Nav1.4-targeting polypeptide and use thereof” (priority 2021, dated 2023).

Where no end group is shown, it is not given here.

As to “Synthetic Nav1.4-targeting polypeptide, amino acid sequence GHCCGDEYRKWCGKRVCRNKARCC (disulfide (positions not given here); not fully specified (bridges)) [NaV-B]”, the “percentage of reduced wrinkle volume (average of all volunteers)” value runs as follows: (15 minutes after application) “more than 9%”; (4 hours after application) “more than 15%”.
